Several values for one entry are separate records, joined by “and”; a condition that tells them apart may be missing. Equal values may be shown once. Numbers after ± are expanded uncertainties.
Settings: Crystal

[I][Er]([I])[I] [erbium iodide]
Settings	vapor or sublimation pressure
871 K	5.37e-05 ± 2.2e-05 kPa
873 K	5.37e-05 ± 2.2e-05 kPa
876 K	8.51e-05 ± 3.4e-05 kPa
884 K	0.0001072 ± 4.3e-05 kPa
886 K	7.94e-05 ± 3.2e-05 kPa and 0.0001047 ± 4.2e-05 kPa and 5.75e-05 ± 2.3e-05 kPa
889 K	9.33e-05 ± 3.7e-05 kPa
890 K	0.0001047 ± 4.2e-05 kPa
891 K	0.0001479 ± 5.9e-05 kPa
897 K	0.0001349 ± 5.4e-05 kPa
898 K	0.0001349 ± 5.4e-05 kPa and 0.0001905 ± 7.6e-05 kPa
903 K	0.0001622 ± 6.5e-05 kPa and 0.0002089 ± 8.4e-05 kPa
904 K	0.0002344 ± 9.4e-05 kPa and 0.0002089 ± 8.4e-05 kPa
906 K	0.0001995 ± 8e-05 kPa
907 K	0.0001288 ± 5.1e-05 kPa
912 K	0.0002138 ± 8.6e-05 kPa and 0.0003162 ± 0.00013 kPa
913 K	0.0002692 ± 0.00011 kPa and 0.000302 ± 0.00012 kPa
915 K	0.0002344 ± 9.4e-05 kPa
916 K	0.0001738 ± 6.9e-05 kPa
918 K	0.0002951 ± 0.00012 kPa and 0.0004074 ± 0.00016 kPa
923 K	0.0004169 ± 0.00017 kPa
924 K	0.0005129 ± 0.00021 kPa and 0.0003388 ± 0.00014 kPa
928 K	0.0002754 ± 0.00011 kPa
929 K	0.0003715 ± 0.00015 kPa
930 K	0.000631 ± 0.00025 kPa and 0.000537 ± 0.00021 kPa and 0.0005754 ± 0.00023 kPa
932 K	0.0004169 ± 0.00017 kPa
934 K	0.0002884 ± 0.00012 kPa
936 K	0.0006166 ± 0.00025 kPa and 0.0008318 ± 0.00033 kPa
937 K	0.0003631 ± 0.00015 kPa
939 K	0.0007586 ± 0.0003 kPa
940 K	0.0005623 ± 0.00022 kPa and 0.000537 ± 0.00021 kPa and 0.0007586 ± 0.0003 kPa
943 K	0.001071 ± 0.00043 kPa
945 K	0.0004786 ± 0.00019 kPa
946 K	0.0005129 ± 0.00021 kPa
947 K	0.0007413 ± 0.0003 kPa
948 K	0.000955 ± 0.00038 kPa
949 K	0.001349 ± 0.00054 kPa and 0.001023 ± 0.00041 kPa and 0.001047 ± 0.00042 kPa
950 K	0.0007762 ± 0.00031 kPa
952 K	0.000537 ± 0.00021 kPa
955 K	0.0006457 ± 0.00026 kPa
956 K	0.001698 ± 0.00068 kPa
957 K	0.0009772 ± 0.00039 kPa
958 K	0.001445 ± 0.00058 kPa
959 K	0.00123 ± 0.00049 kPa
961 K	0.0007413 ± 0.0003 kPa
962 K	0.001698 ± 0.00068 kPa
963 K	0.001698 ± 0.00068 kPa and 0.001202 ± 0.00048 kPa and 0.0008913 ± 0.00036 kPa
966 K	0.00195 ± 0.00078 kPa and 0.001023 ± 0.00041 kPa
968 K	0.00257 ± 0.001 kPa
969 K	0.001514 ± 0.00061 kPa
971 K	0.001906 ± 0.00076 kPa
972 K	0.00123 ± 0.00049 kPa
973 K	0.002455 ± 0.00098 kPa
974 K	0.003162 ± 0.0013 kPa and 0.00257 ± 0.001 kPa and 0.001175 ± 0.00047 kPa
976 K	0.002042 ± 0.00082 kPa
978 K	0.002884 ± 0.0012 kPa
979 K	0.002951 ± 0.0012 kPa
980 K	0.003802 ± 0.0015 kPa and 0.001622 ± 0.00065 kPa
981 K	0.001778 ± 0.00071 kPa
982 K	0.002512 ± 0.001 kPa
983 K	0.003388 ± 0.0014 kPa
984 K	0.003548 ± 0.0014 kPa
986 K	0.003236 ± 0.0013 kPa
987 K	0.00182 ± 0.00073 kPa
988 K	0.002089 ± 0.00084 kPa
989 K	0.004266 ± 0.0017 kPa
990 K	0.003236 ± 0.0013 kPa
992 K	0.004266 ± 0.0017 kPa and 0.004467 ± 0.0018 kPa
994 K	0.004786 ± 0.0019 kPa
995 K	0.002951 ± 0.0012 kPa
996 K	0.002754 ± 0.0011 kPa
997 K	0.004169 ± 0.0017 kPa
999 K	0.004786 ± 0.0019 kPa and 0.005754 ± 0.0023 kPa
1001 K	0.00631 ± 0.0025 kPa and 0.002884 ± 0.0012 kPa
1004 K	0.006457 ± 0.0026 kPa and 0.005129 ± 0.0021 kPa
1006 K	0.006918 ± 0.0028 kPa
1007 K	0.007079 ± 0.0028 kPa
1008 K	0.004677 ± 0.0019 kPa and 0.00389 ± 0.0016 kPa
1010 K	0.007943 ± 0.0032 kPa
1011 K	0.008318 ± 0.0033 kPa
1012 K	0.006761 ± 0.0027 kPa
1015 K	0.004571 ± 0.0018 kPa
1016 K	0.005129 ± 0.0021 kPa
1017 K	0.01 ± 0.004 kPa
1018 K	0.008128 ± 0.0033 kPa
1019 K	0.01047 ± 0.0042 kPa
1026 K	0.01318 ± 0.0053 kPa
1030 K	0.006918 ± 0.0028 kPa
1036 K	0.01778 ± 0.0071 kPa
1045 K	0.01023 ± 0.0041 kPa
1046 K	0.02455 ± 0.0098 kPa
1059 K	0.03548 ± 0.014 kPa
1070 K	0.04898 ± 0.02 kPa
1082 K	0.06918 ± 0.028 kPa

[Br][Er]([Br])[Br] [erbium bromide (ErBr3)]
Settings	vapor or sublimation pressure
919 K	2.82e-05 ± 8.5e-06 kPa
930 K	4.17e-05 ± 1.3e-05 kPa and 7.08e-05 ± 2.1e-05 kPa
941 K	7.08e-05 ± 2.1e-05 kPa
942 K	8.91e-05 ± 2.7e-05 kPa and 0.0001122 ± 3.4e-05 kPa
948 K	9.77e-05 ± 2.9e-05 kPa
952 K	0.000123 ± 3.7e-05 kPa
954 K	0.0001413 ± 4.2e-05 kPa
956 K	0.000182 ± 5.5e-05 kPa
959 K	0.0001413 ± 4.2e-05 kPa
961 K	0.0001995 ± 6e-05 kPa
962 K	0.0001778 ± 5.3e-05 kPa
964 K	0.000195 ± 5.8e-05 kPa
966 K	0.0001995 ± 6e-05 kPa
968 K	0.000182 ± 5.5e-05 kPa
970 K	0.0002692 ± 8.1e-05 kPa and 0.0002455 ± 7.4e-05 kPa
971 K	0.0002951 ± 8.8e-05 kPa
973 K	0.0002692 ± 8.1e-05 kPa
977 K	0.0003467 ± 0.0001 kPa
979 K	0.0003311 ± 9.9e-05 kPa and 0.0002818 ± 8.4e-05 kPa
982 K	0.0003631 ± 0.00011 kPa
984 K	0.0004898 ± 0.00015 kPa
988 K	0.0004786 ± 0.00014 kPa
989 K	0.0004677 ± 0.00014 kPa
990 K	0.0004898 ± 0.00015 kPa
993 K	0.0005623 ± 0.00017 kPa and 0.0004169 ± 0.00013 kPa
998 K	0.000631 ± 0.00019 kPa and 0.0006166 ± 0.00018 kPa and 0.0007943 ± 0.00024 kPa
1004 K	0.0009333 ± 0.00028 kPa
1007 K	0.0008318 ± 0.00025 kPa
1008 K	0.0006761 ± 0.0002 kPa and 0.0008511 ± 0.00026 kPa
1009 K	0.000871 ± 0.00026 kPa
1010 K	0.0009772 ± 0.00029 kPa
1015 K	0.001349 ± 0.0004 kPa
1018 K	0.001148 ± 0.00034 kPa and 0.001122 ± 0.00034 kPa
1020 K	0.001 ± 0.0003 kPa
1025 K	0.001698 ± 0.00051 kPa and 0.001445 ± 0.00043 kPa
1026 K	0.001514 ± 0.00045 kPa
1028 K	0.002089 ± 0.00063 kPa
1033 K	0.002138 ± 0.00064 kPa and 0.001585 ± 0.00048 kPa
1036 K	0.002042 ± 0.00061 kPa and 0.00257 ± 0.00077 kPa and 0.002089 ± 0.00063 kPa
1045 K	0.002951 ± 0.00089 kPa and 0.002818 ± 0.00085 kPa
1051 K	0.003631 ± 0.0011 kPa
1056 K	0.00389 ± 0.0012 kPa
1058 K	0.004365 ± 0.0013 kPa

— the NIST ThermoML archive (doi:10.1021/je020220n)
